Measured values taken from ChEMBL document CHEMBL4680258, “Synthesis, characterization and carbonic anhydrase I and II inhibitory evaluation of new sulfonamide derivatives bearing dithiocarbamate” (Eur J Med Chem, 2020).

system: NIH3T3; assay: Cytotoxicity against mouse NIH/3T3 cells assessed as reduction in cell viability incubated for 24 hrs by MTT assay; type: cell-based; details: NIH3T3, 24 h

`NS(=O)(=O)c1ccc(NC(=O)CSC(=S)N2CCN(c3ccccn3)CC2)cc1` and `NS(=O)(=O)c1ccc(NC(=O)CSC(=S)N2CCN(c3ncccn3)CC2)cc1` are within 1.5-fold of each other in IC50: 18.5 µM for the first, 16.5 µM for the second.

Compared with `Cc1ccc(CN2CCN(C(=S)SCC(=O)Nc3ccc(S(N)(=O)=O)cc3)CC2)cc1`, `CN1CCN(C(=S)SCC(=O)Nc2ccc(S(N)(=O)=O)cc2)CC1` is 4-fold lower in IC50: 58.1 µM for the first, 14.5 µM for the second.

`CN(C)CCN1CCN(C(=S)SCC(=O)Nc2ccc(S(N)(=O)=O)cc2)CC1` and `CN(C)CCCN1CCN(C(=S)SCC(=O)Nc2ccc(S(N)(=O)=O)cc2)CC1` cannot be ordered by IC50: > 1000 µM for the first, > 1000 µM for the second.
